# In publication PMC7381740 (Theranostics, 2020):
# “Also recorded” adds a separate entry of the source. Like-named read-outs stand apart in the source and are kept apart here.
# How the values were obtained:
# [1] = target: σ1 receptor (S1R); conditions: cited from earlier work
# [2] = system: neurons (NeuN); assay: NeuN immunohistochemistry after intrastriatal AMPA; type: in vivo, rat
# Procedure: Animals were maintained normothermic (body temperature: 37.0 ± 0.4 °C) during the surgery through the use of a heating blanket (Homeothermic Blanket Control Unit, Harvard Apparatus Limited®, Edenbridge, Kent, UK). Twenty-four hours later, the rats were anesthetized again as described above and scanned with a 3T cryogen-free MRS 3000 scanner with a quadrature, rat head coil (MR Solutions, Guildford, UK), [35] to assess oedema (i.e. lesion size and location) immediately before the PET scan. Parameters for the T2-weighted RARE sequence were: repetition time = 4800 ms, base echo time = 17 ms, effective echo time = 68 ms, number of echoes = 8, bandwidth = 20 kHz, number of samples = 256, number of views = 240, number of averages = 1 with 25 slices of 1.06 mm, giving a final voxel size of 0.136 × 0.136 × 1.06 mm.
# Immunohistochemistry was also carried out in rats that received intrastriatal AMPA to visualise NeuN (neuronal marker). Animals were culled by isoflurane overdose confirmed by cervical dislocation. The brains were collected, snap frozen using isopentane on dry ice and stored at -80 °C. Coronal brain sections (20 µm thick) were taken using a cryostat (Leica CM3050s, Leica Biosystems Nussloch GmbH, Germany) and stored at -80 °C. Sections were allowed to defrost and dry at room temperature for 20min and then fixed with 4% paraformaldehyde for 10 min before being washed (6 × 5 min) in phosphate buffered saline (PBS) and incubated for 30 min in 2% normal donkey serum and 0.1% Triton X-100 in PBS to permeabilise and block non-specific binding. Primary antibody incubation was carried out overnight at 4 °C with rabbit anti-NeuN (Abcam, ab177487, 1:500). Following incubation in primary antibody, PBS washes were repeated (3 × 10min) and incubation with the secondary antibody (Alexa Fluor 594nm Donkey anti-rabbit IgG 1:500) was carried out. Images of the lesioned striatum were collected on an Olympus BX51 upright microscope using a 10×/0.30 UPlanFLN objectives and captured using a Retiga 6000 Color and R6 camera through QCapture Pro 7 and Ocular Software (QImaging Inc.). Specific band pass filter sets were used to prevent bleed through from one channel to the next. NeuN staining was quantified using ImageJ (1.52n) [51]-[53] using 5 snapshots for the caudate putamen, 3 snapshots for the globus pallidus and 2 snapshots for the substantia nigra for each side of the brain (ipsi- and contralateral). Both the total number of neurons averaged over the snapshots and the percentage of stained areas were measured.
# For NeuN staining analysis and ^18F-IAM6067 autoradiography in the AMPA model, percentage stained area, cell counts and ^18F-IAM6067 were analysed using paired t-tests (ipsi- vs contralateral) for the caudate-putamen, globus pallidus and substantia nigra.
# [3] = target: S1R (Rattus norvegicus, UniProt Q9R0C9); assay: PET pre-saturation (blocking) studies of ^18F-IAM6067 uptake; type: in vivo; conditions: blocker 1 mg/kg i.v. 20-30 min before scan
# Procedure: PET data were expressed as SUV.
# As the experiments with CM398 were performed later, scans without and with pre-treatment with CM398 were performed in the same animals and therefore were analysed using 2 way ANOVA with repeated measures for ROI and treatment. ANOVA were followed by a Sidak's post-hoc test.
# [4] = system: sigma binding sites; design: method as in PMID 8221112; conditions: hippocampus of AD patients vs controls, autoradiography; cited from earlier work
# [5] = system: S1R; conditions: baboon pre-treated with haloperidol 1 mg/kg i.v.; cited from earlier work
# [6] = globus pallidus, 24 h after intrastriatal AMPA 7.5 nmol, ipsi- vs contralateral
# S1R (Rattus norvegicus, UniProt Q9R0C9), sequence (Q9R0C9 whole entry): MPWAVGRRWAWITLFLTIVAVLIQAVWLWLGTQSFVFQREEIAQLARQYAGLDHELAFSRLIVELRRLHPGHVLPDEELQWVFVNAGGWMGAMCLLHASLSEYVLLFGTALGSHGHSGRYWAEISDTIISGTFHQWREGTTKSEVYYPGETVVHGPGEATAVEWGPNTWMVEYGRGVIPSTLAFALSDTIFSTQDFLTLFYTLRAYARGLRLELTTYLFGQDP
compound,measurement,setting,value
FCC[C@H]1OC2(CCN(Cc3ccccc3)CC2)c2ccccc21 [(R)-^18F-fluspidine],Ki,[1]; enantiomers,520 pM
"Cc1onc(O)c1CC(N)C(=O)O (stereo not drawn) [AMPA, α-amino-3-hydroxy-5-methyl-4-isoxazolepropionic acid]","loss of neurons, NeuN % stained area","[2]; caudate-putamen, 24 h after intrastriatal AMPA 7.5 nmol, ipsi- vs contralateral",-81 ± 3%
same,"loss of neurons, NeuN % stained area",[2]; [6],-71 ± 8%
same,"loss of neurons, NeuN cell number",[2]; [6],-56 ± 17%
same,loss of neurons in the striatum (NeuN immunostaining),[2]; striatum,70-80%
CN(C)CCN(C)CCc1ccc(Cl)c(Cl)c1 [BD1047],decrease (blocking) of ^18F-IAM6067 uptake in all areas of the brain,[3],79-90%
same,effect of pre-saturation on ^18F-IAM6067 uptake vs baseline (in words),[3],full blocking
COc1cc2c(cc1OC)CN(CCCCn1c(=O)n(C)c3ccccc31)CC2 [CM398],effect of pre-saturation on ^18F-IAM6067 uptake vs baseline (in words),[3],no significant blockade; also recorded: did not reveal any significant difference; also recorded: did not result in a significant reduction
Cn1ccc2cc3c(cc21)CCN3C(=O)Nc1cccnc1 [SB206553],effect of pre-saturation on ^18F-IAM6067 uptake vs baseline (in words),[3],no significant blockade; also recorded: did not reveal any significant difference; also recorded: no significant difference
Cc1ccccc1NC(=N)Nc1ccccc1C [^3H-DTG],decrease in binding,[4],26%
COc1ccc(CCN2CCN(CCCc3ccccc3)CC2)cc1OC [^11C-SA4503],Ki,[1],4400 pM
O=c1sc2cc(CCCF)ccc2n1CCN1CCCCCC1 [^18F-FTC-146],Ki,[1],2.5 pM
FCCC1OC2(CCN(Cc3ccccc3)CC2)c2ccccc21 (stereo not drawn) [^18F-fluspidine],Ki,[1],590 pM
O=C(CCCN1CCC(O)(c2ccc(Cl)cc2)CC1)c1ccc(F)cc1 [haloperidol],displacement in specific receptor binding of ^18F-IAM6067 in all areas of the brain,[5],80%
(S)-^18F-fluspidine,Ki,[1]; enantiomers,2300 pM
